“Also recorded” adds a separate entry of the source.
How the values were obtained:
PPARδ = target: T1, PPARδ (Mus musculus, UniProt P35396, A150G/E149D); assay: Cotransfection assay in CV-1 cells, PPRE3-TK-LUC reporter, CMX-PPARδ; type: cell-based; settings: 5 μM Wy 14,643, 30 μM linoleic acid, 30 μM LY-171883
T1 construct: The second clone encodes a 440-amino acid protein; expressed in transfected cells; host or cells: CV-1 cells
T1 sequence (P35396 1-440 E149D/A150G): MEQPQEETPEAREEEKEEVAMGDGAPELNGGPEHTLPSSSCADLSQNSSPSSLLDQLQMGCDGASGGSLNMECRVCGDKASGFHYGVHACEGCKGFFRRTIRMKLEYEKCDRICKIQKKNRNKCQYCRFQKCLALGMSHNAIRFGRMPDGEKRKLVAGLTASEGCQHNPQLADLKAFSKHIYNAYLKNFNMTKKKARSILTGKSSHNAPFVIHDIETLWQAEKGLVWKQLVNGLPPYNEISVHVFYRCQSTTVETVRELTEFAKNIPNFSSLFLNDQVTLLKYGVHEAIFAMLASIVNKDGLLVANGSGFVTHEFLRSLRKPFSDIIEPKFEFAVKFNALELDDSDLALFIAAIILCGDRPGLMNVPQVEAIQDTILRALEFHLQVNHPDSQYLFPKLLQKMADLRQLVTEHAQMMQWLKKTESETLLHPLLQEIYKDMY
Source text: (§1) The mammalian expression vectors pCMX-PPARα, pCMX-PPARγ and pCMX-PPARδ were constructed by inserting the cDNA inserts of PPARα, PPARγ, and PPARδ into pCMX as previously described by Umesono et al., in Cell 65:1255-1266 (1991)). Construction of the reporter PPRE3-TK-LUC has also been previously described by Kliewer et al., (1992) supra. Cotransfection assays in CV-1 cells were done in 48 well plates using N-[1-(2,3-dioleoyloxy)-propyl [N,N,N-trimethyl ammonium methyl sulfate (DOTAP) according to the manufacturer's instructions (Boehringer Mannheim). Transfections contained 10 ng of receptor expression plasmid vector, 20 ng of the reporter PPRE3-TK-LUC, 60 ng of pCMX-βGAL (β-galactosidase) as an internal control, and 210 ng of carrier plasmid pGEM. Cells were incubated in the presence of DOTAP for 8 hours, washed, and incubated in the presence of peroxisome proliferators or fatty acids for 36 hours. Cell extracts were prepared and assayed for luciferase and β-galactosidase activity as previously described (Umesono, supra). All experimental points were done in triplicate.

PPARα [1] = target: T2, PPARα (Mus musculus, UniProt P23204); assay: Cotransfection assay in CV-1 cells, PPRE3-TK-LUC reporter, CMX-PPARα; type: cell-based; settings: 5 μM Wy 14,643, 30 μM linoleic acid, 30 μM LY-171883
T2 construct: constructed by inserting the cDNA inserts of PPARα, PPARγ, and PPARδ into pCMX; expressed in transfected cells; host or cells: CV-1 cells
T2 sequence (P23204 1-468): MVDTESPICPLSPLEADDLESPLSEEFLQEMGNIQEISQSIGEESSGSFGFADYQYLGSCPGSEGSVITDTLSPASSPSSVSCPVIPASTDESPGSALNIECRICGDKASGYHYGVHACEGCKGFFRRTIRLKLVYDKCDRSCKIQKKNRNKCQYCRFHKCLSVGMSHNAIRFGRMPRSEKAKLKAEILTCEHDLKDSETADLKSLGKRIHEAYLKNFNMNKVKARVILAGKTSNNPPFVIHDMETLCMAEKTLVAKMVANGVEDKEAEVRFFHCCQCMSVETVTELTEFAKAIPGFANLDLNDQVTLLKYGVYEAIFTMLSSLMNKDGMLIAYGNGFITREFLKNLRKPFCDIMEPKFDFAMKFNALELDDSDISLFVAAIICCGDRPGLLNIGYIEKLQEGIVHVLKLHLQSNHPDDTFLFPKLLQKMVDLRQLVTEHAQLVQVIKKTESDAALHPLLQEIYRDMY
Source text: (§2) Luciferase activities are presented as the fold activation achieved in compound-treated versus mock-treated cells. Similar results were obtained in triplicate in three independent experiments.
as §1

PPARγ = target: T3, PPARγ (Mus musculus, UniProt P37238, N383S); assay: Cotransfection assay in CV-1 cells, PPRE3-TK-LUC reporter, CMX-PPARγ; type: cell-based; settings: 5 μM Wy 14,643, 30 μM linoleic acid, 30 μM LY-171883
T3 construct: The first clone encodes a 475-amino acid protein; expressed in transfected cells; host or cells: CV-1 cells
T3 sequence (P37238 31-505 N383S): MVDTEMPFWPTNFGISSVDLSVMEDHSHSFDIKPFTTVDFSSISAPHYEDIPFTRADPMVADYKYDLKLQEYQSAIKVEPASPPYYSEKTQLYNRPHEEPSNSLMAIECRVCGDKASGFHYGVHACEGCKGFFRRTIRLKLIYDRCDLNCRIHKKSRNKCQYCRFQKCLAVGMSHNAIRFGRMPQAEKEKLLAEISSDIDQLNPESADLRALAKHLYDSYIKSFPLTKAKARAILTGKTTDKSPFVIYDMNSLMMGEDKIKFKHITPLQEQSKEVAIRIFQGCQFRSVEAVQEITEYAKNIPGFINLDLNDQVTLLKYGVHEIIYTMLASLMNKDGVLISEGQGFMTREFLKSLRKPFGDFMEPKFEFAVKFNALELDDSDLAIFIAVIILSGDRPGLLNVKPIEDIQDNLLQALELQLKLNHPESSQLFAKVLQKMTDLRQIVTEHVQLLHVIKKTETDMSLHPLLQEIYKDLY
Source text: as §2, §1

PPARα [2] = assay: cell_activity; settings: 5 uM Wy 14,643, CV-1 cells, luciferase reporter

activation of PPARα (reporter expression) (PPARα [1]) | Compound | activation of PPARδ (reporter expression) (PPARδ) | activation of PPARγ (reporter expression) (PPARγ) | activity (fold activation) (PPARα [2])
strong activators | CCCc1c(OCCCCc2nnn[nH]2)ccc(C(C)=O)c1O [LY-171883] | not activated | significant activation; also recorded: most efficiently activated | 
strong activators | CCCCC/C=C\C/C=C\CCCCCCCC(=O)O [linoleic acid] | activated; also recorded: most efficiently activated | no activation | 
 | PPRE3-TK-LUC (three copies of AOX-PPRE) |  |  | > 100

Compound | activation of PPARα (reporter expression) (PPARα [1]) | activation of PPARδ (reporter expression) (PPARδ) | activation of PPARγ (reporter expression) (PPARγ) | activity (fold activation) (PPARα [2])
Cc1cccc(Nc2cc(Cl)nc(SCC(=O)O)n2)c1C [Wy 14,643] | most efficiently activated |  | no activation; also recorded: fail to respond; also recorded: fails to activate | 

— patent US20060154335A1, “Novel members of the steroid/thyroid superfamily and uses therefor” (The Salk Institute for Biological Studies, priority 1994, published 2006)
